This is an account of results in PubChem BioAssay (NCI).

SMILES strings stand for the structures. Several values for one entry are separate records, joined by “and”; a condition that tells them apart may be missing. Identical values can stand only once.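 How tested: cells in 96-well plates exposed to compound for 48 hours at five concentrations. At the GI50, growth is halved. TGI: concentration producing complete growth inhibition.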

Some test systems named below: NCI-H522 lung; LOX IMVI melanoma; SR leukemia; SF-539 CNS; HCT-116 colon; CCRF-CEM leukemia; SK-MEL-28 melanoma; PC-3 prostate; NCI-H460 lung; OVCAR-8 ovarian.
What all share (assay): DTP human tumour cell line panel, 48 h

What is called GI50 is the concentration that inhibits growth by half. In general, TGI refers to the concentration giving total growth inhibition. For the compound `N=c1c2c(=N)n3c(nc2nc2n1-c1ccccc1Sc1ccccc1-2)sc1cc(Cl)ccc13`, the GI50 in the test on NCI-H522 lung is 1.2 µM; in the test on LOX IMVI melanoma, 2.7 µM; with SR leukemia, 2.77 µM; with SF-539 CNS it was 5.07 µM; with HCT-116 colon it was 1.86 µM; with CCRF-CEM leukemia, 2.59 µM. In addition, the GI50 with SK-MEL-28 melanoma is 2.65 µM; in the test with PC-3 prostate, 2.64 µM; in the test on NCI-H460 lung, 1.77 µM; in the test with OVCAR-8 ovarian, 3.1 µM. Further, the TGI is 6.99 µM in the test with NCI-H522 lung; 14.6 µM with LOX IMVI melanoma; greater than 100 µM in the test with SR leukemia; 30.6 µM in the test on SF-539 CNS; greater than 100 µM with HCT-116 colon; greater than 100 µM with CCRF-CEM leukemia. Further, the concentration for total growth inhibition (TGI) in the test with SK-MEL-28 melanoma was 13.6 µM; in the test with PC-3 prostate it was greater than 100 µM; with NCI-H460 lung it was 10.3 µM; in the test with OVCAR-8 ovarian, 67.9 µM.

Take `CCC(=O)c1c(C(F)(F)F)n([O-])c2cc(F)c(F)cc2[n+]1=O`: the GI50 was 0.615 µM in the test with NCI-H522 lung; 0.0284 µM with LOX IMVI melanoma; 0.0607 µM in the test on SR leukemia; 1.54 µM in the test with SF-539 CNS; 0.366 µM in the test with HCT-116 colon; 0.108 µM with CCRF-CEM leukemia. For the same compound, the GI50 in the test with SK-MEL-28 melanoma was 1.32 µM; in the test with PC-3 prostate, 1.54 µM; in the test with NCI-H460 lung, 1.76 µM; with OVCAR-8 ovarian, 0.632 µM. The TGI worked out at 2.69 µM in the test on NCI-H522 lung; 0.221 µM with LOX IMVI melanoma; 0.263 µM in the test on SR leukemia; 3.18 µM with SF-539 CNS; 1.51 µM in the test with HCT-116 colon; 0.555 µM in the test on CCRF-CEM leukemia. Moreover, the TGI in the test with SK-MEL-28 melanoma came to 2.99 µM; in the test with PC-3 prostate, 3.06 µM; in the test with NCI-H460 lung it was 4.89 µM; with OVCAR-8 ovarian, 1.59 µM.

With `Cn1ncc(Cl)c1-c1cc(C(=O)N[C@H](CN)Cc2ccc(F)c(F)c2)oc1Cl`, the GI50 in the test on NCI-H522 lung was 4.82 µM and 2.04 µM; in the test on LOX IMVI melanoma, 2.65 µM and 1.44 µM; in the test on SF-539 CNS, 0.161 µM and 0.121 µM; with HCT-116 colon, 1.67 µM and 1.76 µM; with CCRF-CEM leukemia, 0.197 µM and 0.196 µM; in the test on SK-MEL-28 melanoma it was 1.02 µM and 0.935 µM. Moreover, the GI50 is 0.263 µM and 0.133 µM in the test with PC-3 prostate; 0.152 µM and 0.163 µM with NCI-H460 lung; 9.13 µM and 4.99 µM in the test on OVCAR-8 ovarian. The TGI with NCI-H522 lung is 16 µM and > 8.82 µM; with LOX IMVI melanoma it was 19.9 µM and 4.19 µM; with SR leukemia, 2.74 µM and 4.36 µM; with SF-539 CNS, 3.22 µM and 2.14 µM; in the test with HCT-116 colon, 8.09 µM and > 6.83 µM; in the test with CCRF-CEM leukemia, 11.8 µM and > 10 µM. The TGI with SK-MEL-28 melanoma was 4.78 µM and 3.2 µM; with PC-3 prostate it was 9.07 µM and > 6.73 µM; with NCI-H460 lung it was 13 µM and > 10 µM; with OVCAR-8 ovarian, 23.7 µM and > 10 µM.

Take `O=C1/C=C/[C@@H](O)[C@@H]2C[C@@H](O)C[C@H]2/C=C/CCC[C@H](C(F)(F)F)O1`: the GI50 with NCI-H522 lung is 0.191 µM; in the test with LOX IMVI melanoma it was 0.137 µM; with SR leukemia it was 0.199 µM; in the test on SF-539 CNS, 0.504 µM; in the test on HCT-116 colon, 0.153 µM; with CCRF-CEM leukemia, 0.205 µM. The GI50 with SK-MEL-28 melanoma is 0.096 µM; in the test on PC-3 prostate, 0.502 µM; in the test on NCI-H460 lung, 9.54 µM; with OVCAR-8 ovarian it was 0.254 µM. For the same compound, the TGI with NCI-H522 lung is 0.515 µM; with LOX IMVI melanoma, 0.388 µM; in the test on SR leukemia it was 0.591 µM; in the test on SF-539 CNS, greater than 100 µM; with HCT-116 colon, 0.385 µM; in the test on CCRF-CEM leukemia, 0.916 µM. For the same compound, the total growth inhibition concentration (TGI) in the test with SK-MEL-28 melanoma was 0.65 µM; in the test with PC-3 prostate, greater than 100 µM; with NCI-H460 lung it was greater than 100 µM; with OVCAR-8 ovarian, 9.03 µM.

For `Cc1cc(Cl)nc(N(CCCNc2ccnc3cc(Cl)ccc23)Cc2ccco2)n1`, the GI50 in the test with NCI-H522 lung was 2.93 µM; with LOX IMVI melanoma, 2.07 µM; in the test on SR leukemia it was 1.65 µM; with SF-539 CNS, 2.33 µM; with HCT-116 colon it was 1.42 µM; in the test with CCRF-CEM leukemia, 2.32 µM. The GI50 in the test on SK-MEL-28 melanoma is 2.38 µM; with PC-3 prostate, 1.87 µM; in the test with NCI-H460 lung, 2.04 µM; in the test on OVCAR-8 ovarian, 2.05 µM. The TGI with NCI-H522 lung came to 12.4 µM; in the test on LOX IMVI melanoma, 5.4 µM; in the test on SR leukemia, 4.49 µM; with SF-539 CNS it was 6.38 µM; in the test with HCT-116 colon it was 4.17 µM; in the test on CCRF-CEM leukemia, 8.93 µM. The TGI amounted to 6.37 µM in the test with SK-MEL-28 melanoma, 6 µM in the test with PC-3 prostate, 6.2 µM in the test with NCI-H460 lung and 6.31 µM in the test with OVCAR-8 ovarian.

For `C=C1C(=O)OC2/C=C(/C)C(OC(C)=O)C/C=C(\C)C(OC(=O)C3(C)OC3C)C(O)C12` (centres undefined), the TGI in the test on NCI-H522 lung is 28.6 µM; with LOX IMVI melanoma it was greater than 100 µM; with SR leukemia, greater than 100 µM; with SF-539 CNS it was greater than 100 µM; with HCT-116 colon it was greater than 100 µM; with CCRF-CEM leukemia, greater than 100 µM. For the same compound, the TGI in the test with SK-MEL-28 melanoma, in the test with PC-3 prostate, in the test with NCI-H460 lung and with OVCAR-8 ovarian was greater than 100 µM each time.

Regarding `CC[n+]1c(/C=C/C=C2\N(C)c3ccccc3C2(C)C)sc2ccccc21`, the GI50 was 3.8 µM in the test on NCI-H522 lung; 4 µM with LOX IMVI melanoma; 3.32 µM in the test on SR leukemia; 4 µM in the test on SF-539 CNS; 4.15 µM in the test on HCT-116 colon; 4.96 µM in the test on CCRF-CEM leukemia. The GI50 was 4.17 µM in the test on SK-MEL-28 melanoma, 4.29 µM in the test with PC-3 prostate, 4.5 µM with NCI-H460 lung and 4.31 µM in the test with OVCAR-8 ovarian. The TGI in the test on NCI-H522 lung is 9.03 µM; in the test with LOX IMVI melanoma, 8.48 µM; with SR leukemia, 9.32 µM; in the test on SF-539 CNS, 7.5 µM; in the test with HCT-116 colon it was 8.16 µM; in the test with CCRF-CEM leukemia, 18.1 µM. Further, the TGI in the test on SK-MEL-28 melanoma was 7.97 µM; in the test on PC-3 prostate, 11.3 µM; in the test on NCI-H460 lung, 8.93 µM; with OVCAR-8 ovarian it was 8.54 µM.
